In data set [1] the test system is two S. aureus strains and B. subtilis ATCC6633. The data set is described as follows: Antimicrobial assay, Gram-positive bacteria. It counts as cell-based. The following applies: from MIC values. The source says: (§1) 3. Bioactivity and Toxicity Assays
(§2) Antimicrobial assay: According to the standard broth micro-dilution assays, following the Standards of European Committee on Antimicrobial Susceptibility Testing (v 7.3.1: Method for the determination of broth dilution minimum inhibitory concentrations of antifungal agents for yeasts) for Candida spp., and according to the standard broth micro-dilution assays, recommended by the National Committee for Clinical Laboratory Standards (M07-A8) for bacteria MIC values of compounds were determinate. Compounds were dissolved in DMSO at a concentration of 50 mg/mL, and the highest tested concentration was 250 µg/mL. The inoculums were 1x10^5 colony forming units (CFU/mL), for Candida species, and bacteria species, 5x10^5 colony forming units (CFU/mL). The MIC value was recorded as the lowest concentration that inhibited the growth after 24 h at 37 °C. Additionally, 5 µL from each well of 96 well plates was transferred to Luria Agar (LA) plates for bacteria and Sabouraud agar (SAB) plates for Candida spp. and incubated for an additional 24 h at 37 °C, to determine MBC (Minimum bactericidal/fungicidal concentration) values. In Table 1. Are labeled compounds showing a difference in MBC and previously determined MIC values. […]

Data set [2] has as its system C. albicans ATCC 10231 hyphae formation. The data set can be described thus: Filamentation test on Candida (solid spider medium). In kind it is cell-based, Candida albicans. The following applies: 0.5 times MIC; 120 h; C. albicans ATCC10231. The protocol: Filamentation test on Candida: Using solid composition, the effect of sorrentano ne […]
albicans cells from an overnight culture grown in Sabouraud dextrose broth medium at 37 °C with or without compounds were centrifuged for 10 minutes at maximum speed, and the pellet was washed several times with sterile PBS (phosphate -buffered saline). After it, the pellet was resuspended in 200 µL PBS, and 2 µL of cell suspension was poured over solid composition and incubated at 37 °C for 120 h. Morphological changes of C. albicans ATCC

Data set [3] deals with C. albicans ATCC10231 biofilm formation. The data set can be described thus: Anti-biofilm activity assessment (crystal violet). It counts as cell-based, Candida albicans. The following applies: for inhibition of biofilm formation (in words): data not shown. As to the method:
Anti-biofilm activity assessment: The effect of compounds on biofilms formation was determined on C. albicans ATCC 10231 strain. Anti -biofilm assays were conducted using a previously reported methodology with small modifica tions.9 The assay was carried out in 96 - well round-bottom polystyrene microtiter plates. Cells wer e harvested from overnight grown cultures, washed twice with sterile phosphate -buffered saline (PBS; Sigma -Aldrich, Munich, Germany), and resuspended in RPMI 1640 medium (Sigma -Aldrich) containing 2% glucose (w/v) at a concentration of 1 × 10^5 CFU/mL. C. albicans suspension was incubated with 0.5 MIC, 1 MIC, and 2 MIC compounds concentration in 200.0 μL final volume per well for 48 h at 37 °C to allow biofilm formation. Biofilm growth was analyzed by crystal violet (CV) staining of adherent cells and the a bsorbance at 590.0 nm was read on a Tecan Infinite 200 Pro multiplate reader (Tecan Group Ltd., Männedorf, Switzerland). […]

In the next data set the test system is B. subtilis ATCC6633. The data set can be described thus: Antimicrobial broth micro-dilution assay (MIC). The following applies: Bacillus subtilis; B. subtilis ATCC6633; 24 h at 37 °C; highest tested concentration 250 µg/mL; read-out: Minimum inhibitory concentration (MIC). In kind it is cell-based.
Source text: as §1, §2
A general note: Dilution methods test growth across graded concentrations, often in twofold steps.

A further data set relates to S. aureus ATCC25923. The data set can be described thus: Antimicrobial broth micro-dilution assay (MIC). It counts as cell-based. To be noted: Staphylococcus aureus; S. aureus ATCC25923; 24 h at 37 °C; highest tested concentration 250 µg/mL; read-out: Minimum inhibitory concentration (MIC).
Source text: as §1, §2

For a further data set, the system named is C. albicans ATCC10231. The data set can be described thus: Antimicrobial broth micro-dilution assay (MIC). In kind it is cell-based. The following applies: Candida albicans; C. albicans ATCC10231; 24 h at 37 °C; highest tested concentration 250 µg/mL; read-out: Minimum inhibitory concentration (MIC).
Source text: as §1, §2

Another data set relates to S. aureus MRSA. The data set is described as follows: Antimicrobial broth micro-dilution assay (MIC). It counts as cell-based. The following applies: Staphylococcus aureus; S. aureus MRSA; 24 h at 37 °C; highest tested concentration 250 µg/mL; read-out: Minimum inhibitory concentration (MIC).
Source text: as §1, §2

For another data set, the system named is E. coli NCTC9001. The data set can be described thus: Antimicrobial broth micro-dilution assay (MIC). It counts as cell-based. To be noted: Escherichia coli; E. coli NCTC9001; 24 h at 37 °C; highest tested concentration 250 µg/mL; read-out: Minimum inhibitory concentration (MIC).
Source text: as §1, §2

The test system of a further data set is P. aeruginosa ATCC27853. The data set is described as follows: Antimicrobial broth micro-dilution assay (MIC). In kind it is cell-based. The following applies: Pseudomonas aeruginosa; P. aeruginosa ATCC27853; 24 h at 37 °C; highest tested concentration 250 µg/mL; read-out: Minimum inhibitory concentration (MIC).
Source text: as §1, §2

Data set [4] deals with human lung fibroblast cell line (MRC-5). The data set can be described thus: Cytotoxicity evaluation by MTT assay. It counts as cell-based. The following applies: for cell survival: MRC-5 cells, 10 µg/mL, 48 h.
Source text: as §1
Antimicrobial assay: According to the standard broth micro-dilution assays, following the Standards of European Committee on Antimicrobial Susceptibility Testing (v 7.3.1: Method for the determination of broth dilution minimum inhibitory concentrations of antifungal agents for yeasts) for Candida spp., and according to the standard broth micro-dilution assays, recommended by the National Committee for Clinical Laboratory Standards (M07-A8) for bacteria MIC values of compounds were determinate. Compounds were dissolved in DMSO at a concentration of 50 mg/mL, and the highest tested concentration was 250 µg/mL. The inoculums were 1x10^5 colony forming units (CFU/mL), for Candida species, and bacteria species, 5x10^5 colony forming units (CFU/mL). The MIC value was recorded as the lowest concentration that inhibited the growth after 24 h at 37 °C. Additionally, 5 µL from each well of 96 well plates was transferred to Luria Agar (LA) plates for bacteria and Sabouraud agar (SAB) plates for Candida spp. and incubated for an additional 24 h at 37 °C, to determine MBC (Minimum bactericidal/fungicidal concentration) values. In Table 1. Are labeled compounds showing a difference in MBC and previously determined MIC values.
Cytotoxicity evaluation: Antiproliferative activity was tested by MTT assay (3-(4,5-dimethylthiazol-2-yl)-2,5-diphenyltetrazoliumbromide) on a human lung fibroblast cell line (MRC-5; ATCC collection). Pre-grown (24 h) cell monolayers (1x10^4 cells per well) in RPMI 1640 medium supplemented with 100 μg/mL streptomycin, 100 U/mL penicillin, and 10% (v/v) FBS (all from Sigma, Munich, Germany) containing the tested compounds at concentrations ranging from 5 to 20 μg/mL were incubated in a humidified atmosphere of 95% air and 5% CO2 at 37 °C for 48 h. The cell viability (extent of MTT reduction) was measured spectrophotometrically at 540 nm using the Epoch 2000 multiplate reader, and the cell survival was expressed as a percentage of the control (untreated cells). Cytotoxicity was expressed as the concentration of the compound inhibiting cell growth by 50% (IC 50). […]
A general note: Tetrazolium assays rely on reduction of a dye to a coloured formazan, in cell work by metabolically active cells.

The values below come from PMC12227560, “Total synthesis of a sorrentanone ester library and evaluation of its antimicrobial potential” (Scientific Reports, 2025).

≈ marks a conversion by molar mass, not a printed value. Some results are limits rather than exact numbers.

As to `CC1=C(O)C(=O)C(C)=C(C(=O)OCCCC(C)C)C1=O` [compound 36], the “improvement of antibacterial activity compared to sorrentanone (7)” value in data set [1] is on record as “two- to four-fold improved activity”. Further, the “filamentation (in words)” value in [2] is “hardly observed”. The “inhibition of biofilm formation (in words)” value in data set [3] was “displayed inhibition of biofilm formation”. Also, the MIC with B. subtilis ATCC6633 is 31.2 µg/mL (≈ 111 µM); in the data set on S. aureus ATCC25923, 15.6 µg/mL (≈ 55.7 µM); in the data set with C. albicans ATCC10231, 62.5 µg/mL (≈ 223 µM); with S. aureus MRSA, 31.2 µg/mL (≈ 111 µM); in the data set with E. coli NCTC9001, over 250 µg/mL; in the data set with P. aeruginosa ATCC27853, over 250 µg/mL. The cell survival entry in [4] is “over 60%”.
As for `CC1=C(O)C(=O)C(C)=C(C(=O)OCc2ccccc2)C1=O` [compound 41], in data set [1], the “improvement of antibacterial activity compared to sorrentanone (7)” value is “two- to four-fold improved activity”. Besides, the “filamentation (in words)” value in data set [2] is on record as “hardly observed”. In data set [3], the “inhibition of biofilm formation (in words)” value was “displayed inhibition of biofilm formation”. Moreover, the “inhibition of biofilm formation” value in data set [3] (sub-inhibitory concentration (0.5 times MIC), 48 h) is reported as 60–77%. Moreover, the MIC in the data set with B. subtilis ATCC6633 was 15.6 µg/mL (≈ 54.5 µM); in the data set on S. aureus ATCC25923, 31.2 µg/mL (≈ 109 µM); with C. albicans ATCC10231, 62.5 µg/mL (≈ 218 µM); in the data set on S. aureus MRSA it was 15.6 µg/mL (≈ 54.5 µM); in the data set on E. coli NCTC9001 it was over 250 µg/mL; with P. aeruginosa ATCC27853, over 250 µg/mL. In addition, the cell survival result in data set [4] was “over 60%”. In addition, the “selectivity index (SI)” value in data set [4] (cytotoxicity versus antibiotic activity, calculation not described) is listed as 0.77.
